T/C, Tumor volume and IC50 data for three compounds are collected here from ChEMBL document CHEMBL1146740, “New analogue of arenastatin A, a potent cytotoxic spongean depsipeptide, with anti-tumor activity” (Bioorg Med Chem Lett, 2004).

Assay [1] is described as follows: In vivo antitumor activity (reduction of tumor volume) was determined over treated/control mice at a dose of 2.5 mg/kg. Type of assay: functional.
The test system of assay [2] is Mus musculus. As to the kind of experiment: In vivo antitumor activity (reduction of tumor volume) was determined against lewis lung carcinoma, subcutaneously in mice at a dose of 5 mg/kg. Type of assay: functional. As to conditions: route intravenous.
Assay [3] can be described thus: In vivo antitumor activity (reduction of tumor volume) was determined over treated/control mice at a dose of 10 mg/kg. The format is functional.
In assay [4] the test system is Mus musculus. As to the kind of experiment: In vivo antitumor activity (reduction of tumor volume) was determined against lewis lung carcinoma, subcutaneously in mice at a dose of 10 mg/kg. Type of assay: functional. The note with it: route intravenous.
In the next assay the test system is KB 3-1. The experiment in a line: Inhibitory activity was evaluated for potent cytotoxic effect on KB-3-1 cells. The format is functional, cell-based. As to conditions: Homo sapiens.
For assay [5], the system named is Mus musculus. As to the kind of experiment: In vivo antitumor activity (reduction of tumor volume) was determined against lewis lung carcinoma, subcutaneously in mice at a dose of 2.5 mg/kg. Type of assay: functional. The note with it: route intravenous.
Assay [6] can be described thus: In vivo antitumor activity (reduction of tumor volume) was determined over treated/control mice at a dose of 5 mg/kg. The format is functional.
For assay [7], the system named is Mus musculus. As to the kind of experiment: In vivo antitumor activity (reduction of tumor volume) was determined against lewis lung carcinoma, subcutaneously in mice at a dose of 1.65 mg/kg. The format is functional. The note with it: route intravenous.
A short description of assay [8]: In vivo antitumor activity (reduction of tumor volume) was determined over treated/control mice at a dose of 3.3 mg/kg. Type of assay: functional.
Assay [9] is described as follows: In vivo antitumor activity (reduction of tumor volume) was determined over treated/control mice at a dose of 1.65 mg/kg. The format is functional.
Assay [10] deals with Mus musculus. The experiment in a line: In vivo antitumor activity (reduction of tumor volume) was determined against lewis lung carcinoma, subcutaneously in mice at a dose of 3.3 mg/kg. Type of assay: functional. As to conditions: route intravenous.

≈ marks a conversion by molar mass, not a printed value.

As a reminder, the IC50 is the concentration at which inhibition is half-maximal.

Turning to `COc1ccc(C[C@H]2NC(=O)/C=C/C[C@@H]([C@H](C)[C@H]3O[C@@H]3c3ccccc3)OC(=O)[C@H](C(C)(C)C)OC(=O)CCNC2=O)cc1`, the T/C in assay [1] was 0.96; in assay [3] it was 0.71; in assay [6], 1.03. The Tumor volume was 7.1 cm*3 in the assay on Mus musculus [2], 4.9 cm*3 in the assay with Mus musculus [4] and 6.6 cm*3 in the assay on Mus musculus [5]. This compound showed an IC50 in the assay on KB 3-1 of 0.01 mg/L (≈ 0.0165 µM).

In the assay on KB 3-1, `COc1ccc(C[C@H]2NC(=O)/C=C/C[C@@H]([C@H](C)[C@H]3O[C@@H]3c3ccccc3)OC(=O)[C@H](C(C)C)OC(=O)CCNC2=O)cc1` showed an IC50 of 0.03 mg/L (≈ 0.0506 µM).

Regarding `CO[C@@]12[C@H](COC(N)=O)C3=C(C(=O)C(C)=C(N)C3=O)N1C[C@@H]1N[C@@H]12` [MITOMYCIN], the results for the Tumor volume in the assay with Mus musculus [7] and with Mus musculus [10] were 4.2 cm*3 and 3.3 cm*3, respectively. Besides, the T/C in [8] is on record as 0.48; in assay [9] it was 0.62.
